By IC50 is commonly meant the concentration needed to halve the response being measured.

Each structure is given as a SMILES string.

Test [1] has as its target Serine/threonine-protein kinase pim-2 (Homo sapiens, UniProt Q9P1W9). Description: PIM-2 Enzyme Assay: The assay for the determination of PIM activity is based on the incorporation of [33P] ATP into PIM2tide substrate and capture of the radiolabeled peptide onto a Whatman P81 (phosphocellulose) filter plate. Assay mixtures contained 4 uM [gamma-33P] ATP (20 uCi/mL), 1.0 uM PIM2tide and […] PIM-2 in place of PIM-1.

Test [2] addresses Serine/threonine-protein kinase pim-3 (Rattus norvegicus, UniProt O70444). Kind of test: PIM-3 Enzyme Assay: The assay for the determination of PIM activity is based on the incorporation of [33P] ATP into PIM2tide substrate and capture of the radiolabeled peptide onto a Whatman P81 (phosphocellulose) filter plate. Assay mixtures contained 30 uM [gamma-33P] ATP (20 uCi/mL), 3.75 uM PIM2tide and 0.5 nM recombinant rat PIM-3 in place of PIM-1.

Serine/threonine-protein kinase pim-2, sequence (Q9P1W9 whole entry): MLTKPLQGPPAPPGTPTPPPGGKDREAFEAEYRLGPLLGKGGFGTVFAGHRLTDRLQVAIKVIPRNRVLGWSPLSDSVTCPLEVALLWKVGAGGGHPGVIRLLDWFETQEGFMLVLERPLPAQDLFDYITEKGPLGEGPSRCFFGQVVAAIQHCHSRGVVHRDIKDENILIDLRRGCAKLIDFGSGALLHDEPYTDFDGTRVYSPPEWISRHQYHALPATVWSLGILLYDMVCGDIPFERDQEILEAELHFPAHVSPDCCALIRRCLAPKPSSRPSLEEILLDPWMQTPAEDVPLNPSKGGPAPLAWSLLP

Regarding `CC1(C)CC(Nc2cccc3ccc(-c4nnc5ccccn45)nc23)CC(C)(C)N1`, the IC50 in test [1] was not below 10000 nM; in test [2], 448 nM.

Values taken from ChEMBL document CHEMBL3639321, “Triazolopyridine compounds as PIM kinase inhibitors” (2013).
